# Results as given in patent US9724382B2, “Pharmaceutical compositions comprising cyclosporin” (PARI Pharma GmbH, priority 2005, dated 2017).
# Like-named read-outs stand apart in the source and are kept apart here.
# What was measured:
# [1] = system: calu-3 cells (confluent monolayer); details: for TEER after 2 h Average / TEER after 24 h Average: human
# [2] = system: calu-3 cells; details: depending on the concentration; cited from earlier work
# [3] = system: calu-3 cells (confluent monolayer); assay: Trans-epithelial electrical resistance (TEER) of calu-3 monolayer; details: for TEER [% of 0 hours]: positive control 0.1%
structure (smiles),measurement,setting,value
"CC(O)CO (stereo not drawn) [Propylene glycol, propylene glycol]",effect on the integrity of the calu-3 monolayer,[1],significant and largely non-reversible damage
same,TEER after 2 h Average,[1]; 0.1 %,116%
same,TEER after 2 h Average,[1]; 0.5 %,120%
same,TEER after 2 h Average,[1]; 5 %,36%
same,TEER after 2 h Average,[1]; 10 %,14%
same,TEER after 24 h Average,[1]; 0.1 %,83%
same,TEER after 24 h Average,[1]; 0.5 %,83%
same,TEER after 24 h Average,[1]; 5 %,75%
same,TEER after 24 h Average,[1]; 10 %,43%
same,effect on calu-3 cells,[2],kills calu-3 cells
"CCCCCCCCCCCCOS(=O)(=O)[O-].[Na+] [SDS, sodium dodecyl sulphate]",TEER after 2 h Average,[3]; Conc. 0.001 %,114%
same,TEER after 24 h Average,[3]; Conc. 0.001 %,107%
same,TEER after 2 h Average,[3]; Conc. 0.010 %,7%
same,TEER after 24 h Average,[3]; Conc. 0.010 %,2%
same,TEER after 2 h Average,[3]; Conc. 0.100 %,3%
same,TEER after 24 h Average,[3]; Conc. 0.100 %,2%
same,effect on the integrity of the calu-3 monolayer,[3]; conclusion from TEER values,significant and largely non-reversible damage
same,TEER [% of 0 hours],[3]; time 0 h,20%
same,TEER [% of 0 hours],[3]; time 1 h,19%
same,TEER [% of 0 hours],[3]; time 2 h,19%
same,TEER [% of 0 hours],[3]; time 24 h,11%
